In patent US10131652B2, “Pyrimidinyloxy benzene derivatives as herbicides” (E. I. DU PONT DE NEMOURS AND COMPANY, priority 2014, dated 2018):
Where two headings read alike, the source gives them in different places.

Columns and labels:
Assay in all cases: Test D pre-/postemergence plant response
Format in all cases: in vivo
[1] = tested on: winter wheat (Triticum aestivum); conditions: Triticum aestivum, pre-emergence, Preemergence
Source text: (§1) Seeds of plant species selected from blackgrass (Alopecurus myosuroides), Italian ryegrass (Lolium multiflorum), winter wheat (Triticum aestivum), galium (catchweed bedstraw, Galium aparine), corn (Zea mays), large (Lg) crabgrass (Digitaria sanguinalis), giant foxtail (Setaria faberii), johnsongrass (Sorghum halepense), lambsquarters (Chenopodium album), morningglory (Ipomoea coccinea), yellow nutsedge (Cyperus esculentus), pigweed (Amaranthus retroflexus), ragweed (common ragweed, Ambrosia elatior), soybean (Glycine max), bamyardgrass (Echinochloa crus-galli), oilseed rape (Brassica napus), waterhemp (common waterhemp, Amaranthus rudis), and velvetleaf (Abutilon theophrasti) were planted into a blend of loam soil and sand and treated preemergence with test chemicals formulated in a non-phytotoxic solvent mixture which included a surfactant. At the same time, plants selected from these crop and weed species and also kochia (Kochia scoparia), wild oat (Avena fatua), and chickweed (common chickweed, Stellaria media) were planted in pots containing Redi-Earth® planting medium (Scotts Company, 14111 Scottslawn Road, Marysville, Ohio 43041) comprising spaghnum peat moss, vermiculite, wetting agent and starter nutrients and treated with postemergence applications of test chemicals formulated in the same manner. Plants ranged in height from 2 to 18 cm (1- to 4-leaf stage) for postemergence treatments. Treated plants and controls were maintained in a greenhouse for 13 to 15 days, after which time all species were compared to controls and visually evaluated. Plant response ratings, summarized in Table D, are based on a scale of 0 to 100 where 0 is no effect and 100 is complete control. A dash (-) response means no test result.

[2] = tested on: pigweed (Amaranthus retroflexus); conditions: Amaranthus retroflexus; for pest or weed control at 16 g/ha: 16 g ai/ha; for pest or weed control at 31 g/ha: 31 g ai/ha; for pest or weed control at 62 g/ha: 62 g ai/ha; for pest or weed control at 125 g/ha: 125 g ai/ha
Source text: as §1

corn (Zea mays) = conditions: Zea mays; for Corn plant response rating (crop injury, 0 = no effect, 100 = complete kill) at 62 g/ha: 62 g ai/ha
Source text: as §1

[3] = tested on: Italian ryegrass (Lolium multiflorum); conditions: Lolium multiflorum; for pest or weed control at 16 g/ha: 16 g ai/ha; for pest or weed control at 31 g/ha: 31 g ai/ha; for pest or weed control at 62 g/ha: 62 g ai/ha; for pest or weed control at 125 g/ha: 125 g ai/ha
Source text: as §1

[4] = tested on: barnyardgrass (Echinochloa crus-galli); conditions: Echinochloa crus-galli; for pest or weed control at 16 g/ha: 16 g ai/ha; for pest or weed control at 16 g/ha / pest or weed control at 31 g/ha: scale 0 to 100 (0 no effect, 100 complete control); for pest or weed control at 31 g/ha: 31 g ai/ha; for pest or weed control at 62 g/ha: 62 g ai/ha; for pest or weed control at 125 g/ha: 125 g ai/ha
Source text: as §1

[5] = post-emergence, Postemergence, scale 0 to 100 (0 no effect, 100 complete control), read-out: Pigweed plant response rating
[6] = post-emergence, Postemergence, scale 0 to 100, 0 no effect, 100 complete control, read-out: Plant response rating, Pigweed
[7] = pre-emergence, Preemergence, scale 0 to 100 (0 no effect, 100 complete control), read-out: Plant response rating, Pigweed
[8] = post-emergence, Postemergence, scale 0 to 100 (0 no effect, 100 complete control), read-out: Ryegrass, Italian plant response rating
[9] = post-emergence, Postemergence, scale 0 to 100, 0 no effect, 100 complete control, read-out: Plant response rating, Ryegrass, Italian
[10] = pre-emergence, Preemergence, scale 0 to 100 (0 no effect, 100 complete control), read-out: Plant response rating, Ryegrass, Italian
[11] = post-emergence, Postemergence, read-out: Barnyardgrass plant response rating
[12] = post-emergence, Postemergence, scale 0 to 100, 0 no effect, 100 complete control, read-out: Plant response rating, Barnyardgrass
[13] = pre-emergence, Preemergence, read-out: Plant response rating (scale 0 to 100), Barnyardgrass
[14] = pre-emergence, Preemergence, read-out: Plant response rating, Barnyardgrass

Question: Which plant injury at 125 g/ha ([1]; 125 g ai/ha, read-out: Plant response rating (scale 0 to 100), Wheat) does the source give for `Fc1cccc(Oc2ncc(Cl)cn2)c1-c1cc(C(F)F)on1` [Compound 55, 5-chloro-2-[2-[5-(difluoromethyl)-3-isoxazolyl]-3-fluorophenoxy]pyrimidine] here?
Answer: 60%

Question: And the plant injury at 16 g/ha ([1]; 16 g ai/ha, scale 0 to 100 (0 no effect, 100 complete control), read-out: Plant response rating, Wheat)?
Answer: 0%

Question: And the plant injury at 31 g/ha ([1]; 31 g ai/ha, scale 0 to 100 (0 no effect, 100 complete control), read-out: Plant response rating, Wheat)?
Answer: 0%

Question: And the plant injury at 62 g/ha ([1]; 62 g ai/ha, scale 0 to 100 (0 no effect, 100 complete control), read-out: Plant response rating, Wheat)?
Answer: 25%

Question: What about the pest or weed control at 16 g/ha [2, 5] of the same molecule?
Answer: 85%

Question: What about the pest or weed control at 31 g/ha [2, 5] of the same molecule?
Answer: 85%

Question: And the pest or weed control at 62 g/ha [2, 6]?
Answer: 98%

Question: What about the pest or weed control at 125 g/ha [2, 6] of the same molecule?
Answer: 100%

Question: What about the pest or weed control at 125 g/ha ([2]; pre-emergence, Preemergence, read-out: Plant response rating (scale 0 to 100), Pigweed) of the same molecule?
Answer: 100%

Question: What about the pest or weed control at 16 g/ha [2, 7] of the same molecule?
Answer: 100%

Question: What about the pest or weed control at 31 g/ha [2, 7] of the same molecule?
Answer: 100%

Question: And the pest or weed control at 62 g/ha [2, 7]?
Answer: 100%

Question: And the plant injury at 16 g/ha (corn (Zea mays); post-emergence, Postemergence, 16 g ai/ha, scale 0 to 100 (0 no effect, 100 complete control), read-out: Corn plant response rating)?
Answer: 10%

Question: What about the plant injury at 31 g/ha (corn (Zea mays); post-emergence, Postemergence, 31 g ai/ha, scale 0 to 100 (0 no effect, 100 complete control), read-out: Corn plant response rating) of the same molecule?
Answer: 10%

Question: What about the Corn plant response rating (crop injury, 0 = no effect, 100 = complete kill) at 62 g/ha (corn (Zea mays); post-emergence, Postemergence, scale 0 to 100, 0 no effect, 100 complete control) of the same molecule?
Answer: 10%

Question: What about the Corn plant response rating (crop injury, 0 = no effect, 100 = complete kill) at 125 g/ha (corn (Zea mays); post-emergence, Postemergence, 125 g ai/ha, scale 0 to 100, 0 no effect, 100 complete control) of the same molecule?
Answer: 20%

Question: What about the plant injury at 125 g/ha (corn (Zea mays); pre-emergence, Preemergence, 125 g ai/ha, read-out: Plant response rating (scale 0 to 100), Corn) of the same molecule?
Answer: 80%

Question: What about the Corn plant response rating (crop injury, 0 = no effect, 100 = complete kill) at 16 g/ha (corn (Zea mays); pre-emergence, Preemergence, 16 g ai/ha, scale 0 to 100 (0 no effect, 100 complete control)) of the same molecule?
Answer: 5%

Question: What about the Corn plant response rating (crop injury, 0 = no effect, 100 = complete kill) at 31 g/ha (corn (Zea mays); pre-emergence, Preemergence, 31 g ai/ha, scale 0 to 100 (0 no effect, 100 complete control)) of the same molecule?
Answer: 20%

Question: What about the Corn plant response rating (crop injury, 0 = no effect, 100 = complete kill) at 62 g/ha (corn (Zea mays); pre-emergence, Preemergence, scale 0 to 100 (0 no effect, 100 complete control)) of the same molecule?
Answer: 35%

Question: What about the pest or weed control at 16 g/ha [3, 8] of the same molecule?
Answer: 0%

Question: What about the pest or weed control at 31 g/ha [3, 8] of the same molecule?
Answer: 5%

Question: What about the pest or weed control at 62 g/ha [3, 9] of the same molecule?
Answer: 10%

Question: What about the pest or weed control at 125 g/ha [3, 9] of the same molecule?
Answer: 15%

Question: What about the pest or weed control at 125 g/ha ([3]; pre-emergence, Preemergence, read-out: Plant response rating (scale 0 to 100), Ryegrass, Italian) of the same molecule?
Answer: 95%

Question: What about the pest or weed control at 16 g/ha [3, 10] of the same molecule?
Answer: 15%

Question: What about the pest or weed control at 31 g/ha [3, 10] of the same molecule?
Answer: 35%

Question: What about the pest or weed control at 62 g/ha [3, 10] of the same molecule?
Answer: 85%

Question: What about the pest or weed control at 16 g/ha [4, 11] of the same molecule?
Answer: 5%

Question: What about the pest or weed control at 31 g/ha [4, 11] of the same molecule?
Answer: 10%

Question: And the pest or weed control at 62 g/ha [4, 12]?
Answer: 15%

Question: And the pest or weed control at 125 g/ha [4, 12]?
Answer: 15%

Question: What about the pest or weed control at 62 g/ha [4, 13] of the same molecule?
Answer: 100%

Question: And the pest or weed control at 125 g/ha [4, 13]?
Answer: 100%

Question: And the pest or weed control at 16 g/ha [4, 14]?
Answer: 25%

Question: What about the pest or weed control at 31 g/ha [4, 14] of the same molecule?
Answer: 85%
